Data published in US20260297070A1, “CYCLIC [COMPOUND LEFT OUT] WRN INHIBITORS” (Nimbus Wadjet, Inc., priority 2023, published 2026).

Molecular target: T1, human Werner helicase (WRN-BV08, Uniprot Q14191, amino acids 517-1235 with L1074F point mutation) (Homo sapiens, UniProt Q14191, L1074F)
T1 construct: Uniprot Q14191, amino acids 517-1235 with L1074F point mutation; TEV-cleavable 8×His (C, cleaved yes); made in house; host or cells: Sf9 insect cells (baculovirus)
Test: WRN (BV08) ADP-Glo Assay
Format: biochemical
Settings: 0.15 nM WRN, 5 μM ATP, 0.1 nM DNA duplex, 15 min preincubation, 60 min at 25° C., pH 7.5, 1% DMSO; read-out: ADP-Glo_hWRN_IC50
How it was run: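 0.15 nM WRN (aa 517-1235, L1074F, Sf9-expressed, tag cleaved) preincubated 15 min at 25 °C with compound, then 5 μM ATP and 0.1 nM DNA duplex added for 60 min. Buffer: 20 mM Bicine pH 7.5, 1 mM MgCl2, 10 mM KCl, 1 mM TCEP; 1% DMSO. ADP-Glo luminescence; IC50 by 4-parameter fit.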

T1 sequence (Q14191 with tags, fused parts or gaps L1074F limits assumed): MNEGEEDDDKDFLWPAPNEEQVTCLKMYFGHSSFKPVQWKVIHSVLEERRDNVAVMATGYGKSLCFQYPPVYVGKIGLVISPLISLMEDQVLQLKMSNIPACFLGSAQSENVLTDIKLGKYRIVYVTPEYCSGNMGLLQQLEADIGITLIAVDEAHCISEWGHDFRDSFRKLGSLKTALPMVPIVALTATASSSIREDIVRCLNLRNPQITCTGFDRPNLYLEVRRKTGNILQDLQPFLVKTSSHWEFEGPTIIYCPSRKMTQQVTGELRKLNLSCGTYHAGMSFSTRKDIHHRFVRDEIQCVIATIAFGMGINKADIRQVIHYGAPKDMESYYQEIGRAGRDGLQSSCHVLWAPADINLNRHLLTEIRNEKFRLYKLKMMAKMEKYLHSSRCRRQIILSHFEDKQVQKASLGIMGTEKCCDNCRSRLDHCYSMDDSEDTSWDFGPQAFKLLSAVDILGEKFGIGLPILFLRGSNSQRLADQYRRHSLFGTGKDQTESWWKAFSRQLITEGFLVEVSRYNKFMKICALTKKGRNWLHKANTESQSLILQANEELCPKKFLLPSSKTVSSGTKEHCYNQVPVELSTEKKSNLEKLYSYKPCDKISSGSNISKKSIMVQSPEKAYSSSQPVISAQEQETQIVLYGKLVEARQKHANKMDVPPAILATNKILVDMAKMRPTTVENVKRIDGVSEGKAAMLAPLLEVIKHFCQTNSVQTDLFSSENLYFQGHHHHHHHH

IC50, > 50 µM:
CC(=O)N(C)CC(C(=O)N(Cc1ccncc1)C1C=CS(=O)(=O)C1)c1ccc(-c2ccc(F)cc2)cc1 (stereo not drawn) [I-452, N-(1,1-dioxo-2,3-dihydro-1lambda6-thiophen-3-yl)-2-{4′-fluoro-[1,1′-biphenyl]-4-yl}-3-(N-methylacetamido)-N-[(pyridin-4-yl)methyl]propanamide]
COc1cc(CN(C(=O)Cc2ccc(-n3ccc(F)cc3=O)cc2F)C2C=CS(=O)(=O)C2)ccn1 (stereo not drawn) [I-453, N-(1,1-dioxo-2,3-dihydro-1lambda6-thiophen-3-yl)-2-[2-fluoro-4-(4-fluoro-2-oxo-1,2-dihydropyridin-1-yl)phenyl]-N-[(2-methoxypyridin-4-yl)methyl]acetamide]
O=C(Cn1ncc2ccccc21)N(Cc1ccncc1)C1C=CS(=O)(=O)C1 (stereo not drawn) [I-454, N-(1,1-dioxo-2,3-dihydro-1lambda6-thiophen-3-yl)-2-(1H-indazol-1-yl)-N-[(pyridin-4-yl)methyl]acetamide]
O=C(Cn1ncc2ccc(C(F)(F)F)cc21)N(Cc1ccncc1)C1C=CS(=O)(=O)C1 (stereo not drawn) [I-455, N-(1,1-dioxo-2,3-dihydro-1lambda6-thiophen-3-yl)-N-[(pyridin-4-yl)methyl]-2-[6-(trifluoromethyl)-1H-indazol-1-yl]acetamide]
CN1CCc2c(ccn2-c2ccc(CC(=O)N(Cc3ccccc3)C3C=CS(=O)(=O)C3)cc2)C1 (stereo not drawn) [I-456, N-benzyl-N-(1,1-dioxo-2,3-dihydro-1lambda6-thiophen-3-yl)-2-(4-{5-methyl-1H,4H,5H,6H,7H-pyrrolo[3,2-c]pyridin-1-yl}phenyl)acetamide]
O=C1CC(c2ccc(F)cc2)CCN1CC(=O)N(Cc1ccncc1)C1C=CS(=O)(=O)C1 (stereo not drawn) [I-457, N-(1,1-dioxo-2,3-dihydro-1lambda6-thiophen-3-yl)-2-[4-(4-fluorophenyl)-2-oxopiperidin-1-yl]-N-[(pyridin-4-yl)methyl]acetamide]
CN(CC(C(=O)N(Cc1ccncc1)C1C=CS(=O)(=O)C1)c1ccc(-c2ccc(F)cc2)cc1)S(C)(=O)=O (stereo not drawn) [I-458, N-(1,1-dioxo-2,3-dihydro-1lambda6-thiophen-3-yl)-2-{4′-fluoro-[1,1′-biphenyl]-4-yl}-3-(N-methylmethanesulfonamido)-N-[(pyridin-4-yl)methyl]propanamide]
CN(C)C(=O)CC(C(=O)N(Cc1ccnc(C(C)(C)O)c1)C1C=CS(=O)(=O)C1)c1ccc(S(F)(F)(F)(F)F)cc1 (stereo not drawn) [I-460, N-(1,1-dioxo-2,3-dihydro-1lambda6-thiophen-3-yl)-N-{[2-(2-hydroxypropan-2-yl)pyridin-4-yl]methyl}-N′,N′-dimethyl-2-[4-(pentafluoro-lambda6-sulfanyl)phenyl]butanediamide]
O=C(Cc1ccc(N2CCC2)cc1)N(Cc1ccncc1)C1C=CS(=O)(=O)C1 (stereo not drawn) [I-461, 2-[4-(azetidin-1-yl)phenyl]-N-(1,1-dioxo-2,3-dihydro-1lambda6-thiophen-3-yl)-N-[(pyridin-4-yl)methyl]acetamide]
O=C(Cc1ccc(-n2cccc2)cc1)N(CCc1ccncc1)C1C=CS(=O)(=O)C1 (stereo not drawn) [I-462, N-(1,1-dioxo-2,3-dihydro-1lambda6-thiophen-3-yl)-N-[2-(pyridin-4-yl)ethyl]-2-[4-(1H-pyrrol-1-yl)phenyl]acetamide]
O=C(Cc1ccc(OC2CCC2)cc1)N(Cc1ccncc1)C1C=CS(=O)(=O)C1 (stereo not drawn) [I-463, 2-(4-cyclobutoxyphenyl)-N-(1,1-dioxo-2,3-dihydro-1lambda6-thiophen-3-yl)-N-[(pyridin-4-yl)methyl]acetamide]
O=C(Cc1ccc(N2CCCC2)cc1)N(Cc1ccncc1)C1C=CS(=O)(=O)C1 (stereo not drawn) [I-464, N-(1,1-dioxo-2,3-dihydro-1lambda6-thiophen-3-yl)-N-[(pyridin-4-yl)methyl]-2-[4-(pyrrolidin-1-yl)phenyl]acetamide]
O=C(Cc1ccc(-c2ccc(F)cc2)cc1C(F)(F)F)N(Cc1ccncc1)C1C=CS(=O)(=O)C1 (stereo not drawn) [I-465, N-(1,1-dioxo-2,3-dihydro-1lambda6-thiophen-3-yl)-2-[4′-fluoro-3-(trifluoromethyl)-[1,1′-biphenyl]-4-yl]-N-[(pyridin-4-yl)methyl]acetamide]
O=C(Cc1ccc(-c2nccs2)cc1)N(Cc1ccncc1)C1C=CS(=O)(=O)C1 (stereo not drawn) [I-466, N-(1,1-dioxo-2,3-dihydro-1lambda6-thiophen-3-yl)-N-[(pyridin-4-yl)methyl]-2-[4-(1,3-thiazol-2-yl)phenyl]acetamide]
O=C(Cc1ccc(-n2cccc2)cc1)N(Cc1ccccn1)C1C=CS(=O)(=O)C1 (stereo not drawn) [I-467, N-(1,1-dioxo-2,3-dihydro-1lambda6-thiophen-3-yl)-N-[(pyridin-2-yl)methyl]-2-[4-(1H-pyrrol-1-yl)phenyl]acetamide]
N#Cc1cc(-n2cccc2)ccc1CC(=O)N(Cc1ccncc1)C1C=CS(=O)(=O)C1 (stereo not drawn) [I-468, 2-[2-cyano-4-(1H-pyrrol-1-yl)phenyl]-N-(1,1-dioxo-2,3-dihydro-1lambda6-thiophen-3-yl)-N-[(pyridin-4-yl)methyl]acetamide]
Cc1ccc(-c2ccc(CC(=O)N(Cc3ccncc3)C3C=CS(=O)(=O)C3)cc2)cc1 (stereo not drawn) [I-470, N-(1,1-dioxo-2,3-dihydro-1lambda6-thiophen-3-yl)-2-{4′-methyl-[1,1′-biphenyl]-4-yl}-N-[(pyridin-4-yl)methyl]acetamide]
O=C(Cc1ccc(-n2cccc2)cc1)N(C1C=CS(=O)(=O)C1)C1CCCc2cnccc21 (stereo not drawn) [I-471, N-(1,1-dioxo-2,3-dihydro-1lambda6-thiophen-3-yl)-2-[4-(1H-pyrrol-1-yl)phenyl]-N-(5,6,7,8-tetrahydroisoquinolin-5-yl)acetamide]
O=C(Cc1ccc(-n2cccc2)cc1)N(Cc1ccnc2[nH]cnc12)C1C=CS(=O)(=O)C1 (stereo not drawn) [I-472, N-(1,1-dioxo-2,3-dihydro-1lambda6-thiophen-3-yl)-N-({3H-imidazo[4,5-b]pyridin-7-yl}methyl)-2-[4-(1H-pyrrol-1-yl)phenyl]acetamide]
CN(C)C(=O)C(C(=O)N(Cc1ccncc1)C1C=CS(=O)(=O)C1)c1ccc(Br)cc1 (stereo not drawn) [I-474, 2-(4-bromophenyl)-N′-(1,1-dioxo-2,3-dihydro-1lambda6-thiophen-3-yl)-N,N-dimethyl-N′-[(pyridin-4-yl)methyl]propanediamide]
CN(C)C(=O)CC(C(=O)N(Cc1ccncc1)C1C=CS(=O)(=O)C1)c1ccc(-c2ccc(F)cc2)cc1 (stereo not drawn) [I-475, N-(1,1-dioxo-2,3-dihydro-1lambda6-thiophen-3-yl)-2-{4′-fluoro-[1,1′-biphenyl]-4-yl}-N′,N′-dimethyl-N-[(pyridin-4-yl)methyl]butanediamide]
O=C(C1CCc2cc(-n3cccc3)ccc21)N(Cc1ccncc1)C1C=CS(=O)(=O)C1 (stereo not drawn) [I-477, N-(1,1-dioxo-2,3-dihydro-1lambda6-thiophen-3-yl)-N-[(pyridin-4-yl)methyl]-5-(1H-pyrrol-1-yl)-2,3-dihydro-1H-indene-1-carboxamide]
O=C(Cc1ccc(-n2cccc2)cc1)N(c1c[nH]c2ncc(F)cc12)C1C=CS(=O)(=O)C1 (stereo not drawn) [I-479, N-(1,1-dioxo-2,3-dihydro-1lambda6-thiophen-3-yl)-N-{5-fluoro-1H-pyrrolo[2,3-b]pyridin-3-yl}-2-[4-(1H-pyrrol-1-yl)phenyl]acetamide]
Cn1cc(CN(C(=O)Cc2ccc(-n3cccc3)cc2)C2C=CS(=O)(=O)C2)cn1 (stereo not drawn) [I-481, N-(1,1-dioxo-2,3-dihydro-1lambda6-thiophen-3-yl)-N-[(1-methyl-1H-pyrazol-4-yl)methyl]-2-[4-(1H-pyrrol-1-yl)phenyl]acetamide]
O=C(Cc1ccc(N2CC(F)(F)C2)cc1)N(Cc1ccncc1)C1C=CS(=O)(=O)C1 (stereo not drawn) [I-482, 2-[4-(3,3-difluoroazetidin-1-yl)phenyl]-N-(1,1-dioxo-2,3-dihydro-1lambda6-thiophen-3-yl)-N-[(pyridin-4-yl)methyl]acetamide]
O=C(Cc1ccc(-n2cccc2)cc1)N(Cc1ncccn1)C1C=CS(=O)(=O)C1 (stereo not drawn) [I-483, N-(1,1-dioxo-2,3-dihydro-1lambda6-thiophen-3-yl)-N-[(pyrimidin-2-yl)methyl]-2-[4-(1H-pyrrol-1-yl)phenyl]acetamide]
CCC(C(=O)N(Cc1ccncc1)C1C=CS(=O)(=O)C1)c1ccc(-n2cccc2)cc1 (stereo not drawn) [I-484, N-(1,1-dioxo-2,3-dihydro-1lambda6-thiophen-3-yl)-N-[(pyridin-4-yl)methyl]-2-[4-(1H-pyrrol-1-yl)phenyl]butanamide]
O=C(Cc1ccc(-n2cccc2)cc1)N(CC1CCOCC1)C1C=CS(=O)(=O)C1 (stereo not drawn) [I-485, N-(1,1-dioxo-2,3-dihydro-1lambda6-thiophen-3-yl)-N-[(oxan-4-yl)methyl]-2-[4-(1H-pyrrol-1-yl)phenyl]acetamide]
O=C(c1ccc(-n2cccc2)cc1)N(Cc1ccccc1)C1C=CS(=O)(=O)C1 (stereo not drawn) [I-486, N-benzyl-N-(1,1-dioxo-2,3-dihydro-1lambda6-thiophen-3-yl)-4-(1H-pyrrol-1-yl)benzamide]

Same assay, conditions: ADP-Glo_hWRN_IC50, 0.15 nM WRN, 5 μM ATP, 0.1 nM DNA duplex, 15 min preincubation, 60 min at 25° C., pH 7.5, 1% DMSO

IC50, > 50 µM:
O=C(CN1CC=C(c2ccccc2)CC1)N(Cc1ccncc1)C1C=CS(=O)(=O)C1 (stereo not drawn) [I-478, N-(1,1-dioxo-2,3-dihydro-1lambda6-thiophen-3-yl)-2-(4-phenyl-1,2,3,6-tetrahydropyridin-1-yl)-N-[(pyridin-4-yl)methyl]acetamide]
